Experimental data taken from the supplement of paper PMC8882468.

Tests used:
Experiment in all cases: CTG-3D luminescence at 96 h relative to day-0 seeding control (ratio to day 0); higher = more growth / less cytotoxicity; PDxO 3D drug screen, 96 h, CTG-3D normalised to day-0 seeding control.
HCI-011.E2 = system: HCI-011.E2 (organoid from an ER-positive breast cancer xenograft)
MDA-MB-231 = system: MDA-MB-231
HCI-015 = system: HCI-015 (organoid from a triple-negative breast cancer xenograft)
HCI-023 = system: HCI-023 (organoid from a triple-negative breast cancer xenograft)
HCI-002 = system: HCI-002 (organoid from a triple-negative breast cancer xenograft)

C[C@@H]1COCCN1c1cc(C2([S@](C)(=N)=O)CC2)nc(-c2cc[nH]c3nccc2-3)n1 [ceralasertib]
CTG-3D luminescence at 96 h
Conditions	12.5 pM	0.00025 µM	0.005 µM	0.1 µM	1 µM	10 µM	100 µM	625 fM
HCI-011.E2	1.56	1.76	1.56	1.78	1.42	1.02	0.326	1.89
MDA-MB-231	4.45	4.38	4.49	4.47	4.27	3.1	1.86	4.53

CTG-3D luminescence at 96 h
Conditions	12.5 pM	0.00025 µM	0.005 µM	0.1 µM	1 µM	10 µM	100 µM	625 fM
HCI-002, days in culture: 62	2.73	2.51	2.76	3.04	1.81	1.12	0.574	2.93
HCI-002, days in culture: 82	2.71	2.85	2.13	2.4	1.5	0.818	0.274	2.8
HCI-002, days in culture: 91	4.35	3.4	4.02	3.58	2.23	1.3	0.523	4.14
HCI-002, days in culture: 191	2.46	2.89	2.17	2.66	1.91	0.976	0.332	2.6
HCI-002, days in culture: 209	2.37	2.28	1.9	2	1.41	0.743	0.29	2.27
HCI-002, days in culture: 227	6.44	5.73	5.38	5.47	3.08	1.48	0.366	6.05
HCI-011.E2, days in culture: 74	2.18	2.33	1.97	1.85	1.53	0.982	0.237	1.86
HCI-015, days in culture: 172	2.39	2.46	2.2	1.24	2.01	0.531	0.385	2.27
HCI-015, days in culture: 191	1.99	1.33	1.19	1.08	1.25	0.413	0.258	1.52
HCI-015, days in culture: 218	1.79	1.5	1.72	1.55	1.2	0.408	0.265	1.58
HCI-023, days in culture: 111	1.26	1.25	0.897	1.31	0.756	0.365	0.252	1.5
HCI-023, days in culture: 128	1.69	1.4	1.37	1.51	0.689	0.634	0.38	1.35

Cc1cc(Nc2ncnc3ccc(NC4=NC(C)(C)CO4)cc23)ccc1Oc1ccn2ncnc2c1 [tucatinib]
CTG-3D luminescence at 96 h
Conditions	12.5 pM	0.00025 µM	0.005 µM	0.1 µM	1 µM	10 µM	100 µM	625 fM
HCI-011.E2	1.7	1.59	1.4	1.87	1.52	1.91	0.142	1.5
MDA-MB-231	4.57	4.49	4.6	4.56	4.67	4.64	0.058	4.58

CTG-3D luminescence at 96 h
Conditions	12.5 pM	0.00025 µM	0.005 µM	0.1 µM	1 µM	10 µM	100 µM	625 fM
HCI-002, days in culture: 62	2.76	2.54	3.08	2.78	2.68	2.44	0.0174	2.91
HCI-002, days in culture: 82	2.73	3.27	2.09	2.6	2.75	1.59	0.0194	2.63
HCI-002, days in culture: 91	3.43	3.15	2.38	2.79	2.2	2.58	0.0163	3.48
HCI-002, days in culture: 191	2.63	2.43	2.47	2.5	3.12	2.01	0.0155	2.73
HCI-002, days in culture: 209	2.22	2.16	2.08	2.02	2.19	1.5	0.0106	2.39
HCI-002, days in culture: 227	5.23	5.28	4.84	4.86	4.14	3.82	0.0281	5.85
HCI-011.E2, days in culture: 74	2.22	2.98	1.74	2.19	2.18	3	0.399	2.84
HCI-015, days in culture: 172	2.53	1.9	2.05	1.54	1.91	1.53	0.0569	2.67
HCI-015, days in culture: 191	1.69	1.49	1.75	0.921	1.58	0.759	0.0182	1.67
HCI-015, days in culture: 218	2.15	1.83	1.97	1.85	1.5	1.64	0.0854	1.8
HCI-023, days in culture: 111	1.15	1.13	1.06	1.2	0.941	1.06	0.00921	1.65
HCI-023, days in culture: 128	1.78	1.62	1.59	2.03	1.5	1.59	0.0109	1.69

NC1(C(=O)N[C@@H](CCO)c2ccc(Cl)cc2)CCN(c2nc[nH]c3nccc2-3)CC1 [capivasertib]
CTG-3D luminescence at 96 h
Conditions	12.5 pM	0.00025 µM	0.005 µM	0.1 µM	1 µM	10 µM	100 µM	625 fM
HCI-011.E2	1.63	1.67	1.43	1.63	1.05	0.559	0.275	1.8
MDA-MB-231	4.33	4.28	4.42	4.28	4.07	3.88	2.39	4.44

CTG-3D luminescence at 96 h
Conditions	12.5 pM	0.00025 µM	0.005 µM	0.1 µM	1 µM	10 µM	100 µM	625 fM
HCI-002, days in culture: 62	2.82	2.61	2.83	2.56	2.34	2.26	0.503	2.99
HCI-002, days in culture: 82	2.73	2.76	1.95	2.52	1.92	1.51	0.418	2.8
HCI-002, days in culture: 91	4.24	3.84	3.7	3.73	2.94	3.16	1.6	4
HCI-002, days in culture: 191	2.54	2.72	1.88	2.57	2.45	1.75	0.435	2.31
HCI-002, days in culture: 209	2.44	2.32	2.31	1.92	1.96	1.45	0.402	2.39
HCI-002, days in culture: 227	6.02	6.01	6.13	6.73	5.16	4.63	0.534	6.21
HCI-011.E2, days in culture: 74	1.84	2.07	2.01	1.54	1	0.548	0.307	2.49
HCI-015, days in culture: 172	2.34	2.2	2.33	1.49	1.2	0.92	0.424	2.15
HCI-015, days in culture: 191	2.07	1.39	1.53	1.06	1.24	0.533	0.257	1.27
HCI-015, days in culture: 218	1.47	1.49	1.11	1.59	0.974	0.878	0.315	1.71
HCI-023, days in culture: 111	1.51	1.39	0.992	0.931	0.434	0.366	0.16	1.39
HCI-023, days in culture: 128	1.4	1.63	1.43	1.22	0.571	0.658	0.277	1.75

NC(=O)c1cccc2cn(-c3ccc([C@@H]4CCCNC4)cc3)nc12 [niraparib]
CTG-3D luminescence at 96 h
Conditions	12.5 pM	0.00025 µM	0.005 µM	0.1 µM	1 µM	10 µM	100 µM	625 fM
HCI-011.E2	1.33	1.59	1.3	1.76	1.7	1.55	0.00155	1.465
MDA-MB-231	4.51	4.46	4.51	4.46	4.41	3.96	0.00282	4.58

CTG-3D luminescence at 96 h
Conditions	12.5 pM	0.00025 µM	0.005 µM	0.1 µM	1 µM	10 µM	100 µM	625 fM
HCI-002, days in culture: 62	3.51	3	3.42	2.62	1.36	0.533	-0.0877	3.34
HCI-002, days in culture: 82	3.5	3.51	2.69	2.16	1.29	0.381	-0.026	2.77
HCI-002, days in culture: 91	2.87	2.3	1.8	1.74	1.11	0.377	-0.0114	2.66
HCI-002, days in culture: 191	3.37	2.98	3.35	2.51	1.99	0.811	-0.139	3.21
HCI-002, days in culture: 209	2.84	2.96	2.54	1.96	1.18	0.302	-0.0818	2.86
HCI-002, days in culture: 227	4.63	5.21	4.64	3.79	2.08	0.87	-0.0133	5.51
HCI-011.E2, days in culture: 74	1.93	2.01	1.98	1.97	1.88	2.89	0.00301	1.92
HCI-015, days in culture: 172	2.77	1.86	2.64	1.3	0.847	0.199	-0.107	2.29
HCI-015, days in culture: 191	2.28	1.35	1.72	1.06	1.12	0.29	-0.000426	1.59
HCI-015, days in culture: 218	2.06	1.35	1.71	1.25	0.615	-0.0786	-0.35	1.94
HCI-023, days in culture: 111	1.92	1.44	1.58	1.16	0.886	0.393	-0.00664	1.85
HCI-023, days in culture: 128	1.57	1.57	1.61	1.42	0.892	0.695	0.00157	1.67

C=CCn1c(=O)c2cnc(Nc3ccc(N4CCN(C)CC4)cc3)nc2n1-c1cccc(C(C)(C)O)n1 [adavosertib]
CTG-3D luminescence at 96 h
Conditions	12.5 pM	0.00025 µM	0.005 µM	0.1 µM	1 µM	10 µM	100 µM	625 fM
HCI-011.E2	1.73	1.67	1.49	1.89	1.41	1.73	1.51	1.62
MDA-MB-231	4.36	4.34	4.48	4.31	3.06	1.05	1.27	4.41

CTG-3D luminescence at 96 h
Conditions	12.5 pM	0.00025 µM	0.005 µM	0.1 µM	1 µM	10 µM	100 µM	625 fM
HCI-002, days in culture: 62	3.1	2.91	2.73	2.4	1.32	0.225	0.324	2.86
HCI-002, days in culture: 82	2.82	2.68	2.02	2.52	1.53	0.198	0.134	2.69
HCI-002, days in culture: 91	3.69	3.67	3.79	3.35	1.82	0.274	0.495	4.31
HCI-002, days in culture: 191	2.59	2.7	2.5	2.3	1.76	0.247	0.507	2.47
HCI-002, days in culture: 209	2.27	2.42	2.11	1.89	1.5	0.217	0.128	2.35
HCI-002, days in culture: 227	6.7	6.34	6.07	6.24	2.13	0.312	0.123	6.55
HCI-011.E2, days in culture: 74	1.66	2.29	2.11	2.08	2.2	2.35	1.38	2.46
HCI-015, days in culture: 172	2.15	2.15	2.3	1.04	1.39	0.498	0.139	2.33
HCI-015, days in culture: 191	2.26	1.49	1.67	0.981	0.612	0.246	0.0546	1.6
HCI-015, days in culture: 218	1.97	1.76	1.56	1.43	0.699	0.252	0.0554	1.82
HCI-023, days in culture: 111	1.63	1.12	1.18	1.1	0.554	0.112	0.0325	1.39
HCI-023, days in culture: 128	1.68	1.92	1.34	1.47	0.441	0.148	0.06302	1.85
